This passage reports IC50 results from patent publication US20250352550A1, “SUBSTITUTED FUROPYRIDINES FOR THERAPEUTIC USE” (MASARYKOVA UNIVERZITA, priority 2022, published 2025).

One assay deals with T1, DDR1 (Homo sapiens, UniProt Q08345).
T1 construct: purchased Reaction Biology
The assay can be described thus: HotSpot radiometric kinase assay (Reaction Biology), DDR1. The assay is classed as biochemical. The settings on record: 200 nM kinase, substrate IRS1tide 20 μM, 33P-ATP, 120 minutes at room temperature. As for the experimental part: (§1) The compounds were profiled in the HotSpot radiometric assays (Reaction Biology).
Briefly, • 1. Substrate indicated in Table 1 was dissolved in freshly prepared reaction buffer (20 mM HEPES (pH 7.5), 10 mM MgCl2, 1 mM EGTA, 0.01% Brij35, 0.02 mg/ml BSA, 0.1 mM Na3VO4, 2 mM DTT, 1% DMSO) at the concentration indicated in Table 1. • 2. Corresponding kinase (concentration indicated in Table 1) was added and the mixture was gently mixed. • 3. Tested compound dissolved in DMSO was added into the kinase reaction mixture. • 4. ^33P-ATP (specific activity 0.01 μCi/μL final) was added into the reaction mixture to initiate the reaction. • 5. The kinase reaction was incubated for 120 minutes at room temperature. • 6. […] The radioactive phosphorylated substrate remaining on the filter paper was measured.
(§2) Kinase activity data were expressed as the percent remaining kinase activity in tested samples compared to the vehicle (DMSO) reactions. IC50 values and curve fits were obtained using Prism4 Software (GraphPad).

The target in another assay is T2, FLT3 (Homo sapiens, UniProt P36888).
T2 construct: purchased Reaction Biology
T2 sequence (P36888 27-993): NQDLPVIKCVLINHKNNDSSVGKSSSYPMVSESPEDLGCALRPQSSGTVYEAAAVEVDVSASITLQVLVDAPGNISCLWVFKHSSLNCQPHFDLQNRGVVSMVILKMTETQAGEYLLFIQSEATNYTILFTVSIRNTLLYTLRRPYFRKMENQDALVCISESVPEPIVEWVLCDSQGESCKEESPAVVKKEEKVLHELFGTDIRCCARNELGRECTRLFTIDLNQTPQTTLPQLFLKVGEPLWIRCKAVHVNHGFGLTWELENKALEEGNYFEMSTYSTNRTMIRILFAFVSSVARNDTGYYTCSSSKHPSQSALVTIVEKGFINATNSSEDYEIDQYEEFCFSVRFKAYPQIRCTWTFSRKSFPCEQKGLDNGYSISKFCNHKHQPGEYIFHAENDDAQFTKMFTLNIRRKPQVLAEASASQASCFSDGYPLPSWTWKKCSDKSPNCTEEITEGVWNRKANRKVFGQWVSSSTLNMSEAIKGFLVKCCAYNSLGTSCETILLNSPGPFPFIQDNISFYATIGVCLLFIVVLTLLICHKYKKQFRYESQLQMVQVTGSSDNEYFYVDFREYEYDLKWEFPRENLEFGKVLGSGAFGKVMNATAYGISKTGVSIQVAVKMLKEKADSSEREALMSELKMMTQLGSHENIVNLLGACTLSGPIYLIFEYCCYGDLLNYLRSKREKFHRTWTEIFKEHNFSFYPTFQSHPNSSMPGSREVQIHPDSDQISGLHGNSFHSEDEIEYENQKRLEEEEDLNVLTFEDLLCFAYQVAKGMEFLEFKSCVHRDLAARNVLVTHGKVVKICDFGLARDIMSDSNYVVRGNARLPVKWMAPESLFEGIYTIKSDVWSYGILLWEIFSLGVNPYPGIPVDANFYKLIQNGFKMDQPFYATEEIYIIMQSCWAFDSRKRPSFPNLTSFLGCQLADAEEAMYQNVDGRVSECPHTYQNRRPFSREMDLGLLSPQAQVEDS
The assay can be described thus: HotSpot radiometric kinase assay (Reaction Biology), FLT3. The following applies: 4 nM kinase, substrate ABLtide 20 μM, 33P-ATP, 120 minutes at room temperature. It is filed as biochemical. As for the experimental part: as §1
Briefly, • 1. Substrate indicated in Table 1 was dissolved in freshly prepared reaction buffer (20 mM HEPES (pH 7.5), 10 mM MgCl2, 1 mM EGTA, 0.01% Brij35, 0.02 mg/ml BSA, 0.1 mM Na3VO4, 2 mM DTT, 1% DMSO) at the concentration indicated in Table 1. • 2. Corresponding kinase (concentration indicated in Table 1) was added and the mixture was gently mixed. • 3. Tested compound dissolved in DMSO was added into the kinase reaction mixture. • 4. ^33P-ATP (specific activity 0.01 μCi/μL final) was added into the reaction mixture to initiate the reaction. • 5. The kinase reaction was incubated for 120 minutes at room temperature. • 6. Reaction mixture was spotted onto P81 ion exchange paper (Whatman K 3698-915). • 7. The filters were extensively washed with […]. • 7. The radioactive phosphorylated substrate remaining on the filter paper was measured.
as §2
Table 2 summarizes the inhibitory activities of indicated compounds tested in the in vitro kinase assays described above.

T1 sequence (Q08345 19-913): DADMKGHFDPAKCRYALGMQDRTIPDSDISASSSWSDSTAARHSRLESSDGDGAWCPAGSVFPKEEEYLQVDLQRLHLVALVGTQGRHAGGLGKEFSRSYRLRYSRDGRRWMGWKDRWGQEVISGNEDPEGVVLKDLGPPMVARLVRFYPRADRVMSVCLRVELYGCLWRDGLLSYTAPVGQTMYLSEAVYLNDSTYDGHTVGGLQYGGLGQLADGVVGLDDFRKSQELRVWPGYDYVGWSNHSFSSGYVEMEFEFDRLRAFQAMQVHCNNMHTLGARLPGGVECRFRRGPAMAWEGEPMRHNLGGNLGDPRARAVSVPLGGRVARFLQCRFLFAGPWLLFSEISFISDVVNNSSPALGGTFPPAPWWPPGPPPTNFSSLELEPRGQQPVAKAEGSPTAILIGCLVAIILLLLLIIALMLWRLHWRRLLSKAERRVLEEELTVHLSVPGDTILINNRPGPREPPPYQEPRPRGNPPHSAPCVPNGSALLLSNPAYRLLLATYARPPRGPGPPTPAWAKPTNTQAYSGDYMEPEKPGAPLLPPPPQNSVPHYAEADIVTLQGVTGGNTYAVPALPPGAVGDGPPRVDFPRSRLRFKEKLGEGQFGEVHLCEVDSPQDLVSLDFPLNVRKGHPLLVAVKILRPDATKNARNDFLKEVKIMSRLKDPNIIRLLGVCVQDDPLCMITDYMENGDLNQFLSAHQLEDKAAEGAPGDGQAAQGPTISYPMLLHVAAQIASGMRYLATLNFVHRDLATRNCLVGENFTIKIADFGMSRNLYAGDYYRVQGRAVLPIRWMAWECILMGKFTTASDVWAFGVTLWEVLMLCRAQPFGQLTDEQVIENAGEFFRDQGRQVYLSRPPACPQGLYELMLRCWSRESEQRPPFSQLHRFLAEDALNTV

With `c1cncc(-c2coc3cc(-c4ccc(N5CCNCC5)cc4)cnc23)c1` [Preparative Example 11, 6-(4-(piperazin-1-yl)phenyl)-3-(pyridin-3-yl)furo[3,2-b]pyridine], the IC50 was 294 nM at DDR1 and 25 nM against FLT3.

`COc1ccccc1-c1coc2cc(-c3ccc(N4CCNCC4)cc3)cnc12` [Preparative Example 17, 3-(2-methoxyphenyl)-6-(4-(piperazin-1-yl)phenyl)furo[3,2-b]pyridine]: the IC50 at DDR1 came out at 184 nM; against FLT3 it was 226 nM.

As for `N#Cc1cccc(-c2coc3cc(-c4ccc(N5CCNCC5)cc4)cnc23)c1` [Preparative Example 20, 3-(6-(4-(piperazin-1-yl)phenyl)furo[3,2-b]pyridin-3-yl)benzonitrile], the results for the IC50 against DDR1 and against FLT3 were 160 nM and 90 nM, respectively. For `c1cc(-c2coc3cc(-c4ccc(N5CCNCC5)nc4)cnc23)ccn1` [Preparative Example 25, 6-(6-(piperazin-1-yl)pyridin-3-yl)-3-(pyridin-4-yl)furo[3,2-b]pyridine] the same measures were 791 nM and 49 nM. For `Cn1ccc(-c2coc3cc(-c4ccc(N5CCNCC5)cc4)cnc23)n1` [Preparative Example 37, 3-(1-methyl-1H-pyrazol-3-yl)-6-(4-(piperazin-1-yl)phenyl)furo[3,2-b]pyridine] the same measures were 222 nM and 282 nM. For `O=[N+]([O-])c1cccc(-c2coc3cc(-c4ccc(N5CCNCC5)cc4)cnc23)c1` [Preparative Example 40, 3-(3-nitrophenyl)-6-(4-(piperazin-1-yl)phenyl)furo[3,2-b]pyridine] the same measures were 98 nM and 142 nM. As for `Cc1ccc(-c2coc3cc(-c4ccc(N5CCNCC5)cc4)cnc23)cc1` [Preparative Example 43, 6-(4-(piperazin-1-yl)phenyl)-3-(p-tolyl)furo[3,2-b]pyridine], the half-inhibitory concentration (IC50) worked out at 126 nM against DDR1 and 175 nM on FLT3. For `CC(C)(C)Sc1cccc(-c2coc3cc(-c4ccc(N5CCNCC5)cc4)cnc23)c1` [Preparative Example 46, 3-(3-(tert-butylthio)phenyl)-6-(4-(piperazin-1-yl)phenyl)furo[3,2-b]pyridine] the same measures were 586 nM and 578 nM.

For `c1cc(-c2coc3cc(-c4ccc(N5CCNCC5)cc4)cnc23)co1` [Preparative Example 57, 3-(furan-3-yl)-6-(4-(piperazin-1-yl)phenyl)furo[3,2-b]pyridine], the values for the concentration for half-maximal inhibition (IC50) against DDR1 and against FLT3 were 172 nM and 22 nM, respectively.

Consider `CN1CCN(c2ccc(-c3cnc4c(-c5ccncc5)coc4c3)cc2)CC1` [Preparative Example 58, 6-(4-(4-methylpiperazin-1-yl)phenyl)-3-(pyridin-4-yl)furo[3,2-b]pyridine], for which the half-maximal inhibitory concentration (IC50) against DDR1 is 364 nM; against FLT3 it was 31 nM. Regarding `NS(=O)(=O)c1cccc(-c2coc3cc(-c4ccc(N5CCNCC5)cc4)cnc23)c1` [Preparative Example 64, 3-(6-(4-(piperazin-1-yl)phenyl)furo[3,2-b]pyridin-3-yl)benzenesulfonamide], the IC50 against DDR1 was 134 nM; at FLT3 it was 26 nM. For `COCc1cccc(-c2coc3cc(-c4ccc(N5CCNCC5)cc4)cnc23)c1` [Preparative Example 70, 3-(3-(methoxymethyl)phenyl)-6-(4-(piperazin-1-yl)phenyl)furo[3,2-b]pyridine] the same measures were 196 nM and 54 nM. For the compound `FC(F)(F)c1cccc(-c2coc3cc(-c4ccc(N5CCNCC5)cc4)cnc23)c1` [Preparative Example 73, 6-(4-(piperazin-1-yl)phenyl)-3-(3-(trifluoromethyl)phenyl)furo[3,2-b]pyridine], the IC50 on DDR1 was found to be 966 nM; on FLT3, 717 nM.

As for `CCOC(=O)Nc1cccc(-c2coc3cc(-c4ccc(N5CCN(C)CC5)cc4)cnc23)c1` [Preparative Example 83, ethyl (3-(6-(4-(4-methylpiperazin-1-yl)phenyl)furo[3,2-b]pyridin-3-yl)phenyl)carbamate], the results for the IC50 on DDR1 and at FLT3 were 622 nM and 99 nM, respectively.

For the compound `CN1CCN(c2ccc(Nc3cnc4c(-c5ccccc5)coc4c3)cc2)CC1` [Preparative Example 101, N-(4-(4-methylpiperazin-1-yl)phenyl)-3-phenylfuro[3,2-b]pyridin-6-amine], the figures for the IC50 against DDR1 and against FLT3 were 347 nM and 146 nM, respectively. For `c1ccc(Oc2cccc(-c3coc4cc(-c5ccc(N6CCNCC6)cc5)cnc34)c2)cc1` [Preparative Example 104, 3-(3-phenoxyphenyl)-6-(4-(piperazin-1-yl)phenyl)furo[3,2-b]pyridine] the same measures were 252 nM and 121 nM. For the compound `CN1CCN(c2ccc(-c3cnc4c(-c5cccc(-c6ccccc6)c5)coc4c3)cc2)CC1` [Preparative Example 158, 3-([1,1′-biphenyl]-3-yl)-6-(4-(4-methylpiperazin-1-yl)phenyl)furo[3,2-b]pyridine], half-maximal inhibition on DDR1 (IC50) was put at 184 nM. On the same count and under the same terms, the figure for `C(#Cc1coc2cc(-c3ccc(N4CCNCC4)cc3)cnc12)c1ccccc1` [Preparative Example 191, 1-{4-[3-(2-phenylethynyl)furo[3,2-b]pyridin-6-yl]phenyl}piperazine] is 329 nM; for `CCCc1oc2cc(-c3ccc(N4CCN(C)CC4)cc3)cnc2c1-c1ccc(C(N)=O)cc1` [Preparative Example 243, 4-{6-[4-(4-methylpiperazin-1-yl)phenyl]-2-propylfuro[3,2-b]pyridin-3-yl}benzamide] it is 208 nM.

On to `CCCc1oc2cc(-c3ccc(N4CCN(C)CC4)cc3)cnc2c1-c1cnn(C)c1` [Preparative Example 245, 1-methyl-4-{4-[3-(1-methyl-1H-pyrazol-4-yl)-2-propylfuro[3,2-b]pyridin-6-yl]phenyl}piperazine], for which inhibition on DDR1 was half-maximal at 312 nM (IC50). Against the preceding compound, the IC50 is about 1.5-fold higher.

The compound `CN1CCN(c2ccc(-c3cnc4c(-c5ccccc5)c(-c5ccccc5)oc4c3)cc2)CC1` [Preparative Example 249, 1-(4-{2,3-diphenylfuro[3,2-b]pyridin-6-yl}phenyl)-4-methylpiperazine] showed an IC50 against DDR1 of 549 nM. The compound `COc1ccc(-c2coc3cc(-c4ccc(N5CCN(C)CC5)cc4)cnc23)cn1` [Preparative Example 259, 3-(6-methoxypyridin-3-yl)-6-(4-(4-methylpiperazin-1-yl)phenyl)furo[3,2-b]pyridine] yielded an IC50 on DDR1 of 261 nM. Turning to `c1ccc(-c2coc3ccc(Nc4ccc(N5CCOCC5)cc4)nc23)cc1` [compound 8B from WO 2015/165428, reference compound], the IC50 against FLT3 turned out to be 1950 nM. `CN1CCN(c2ccc(Nc3ccc4occ(-c5ccccc5)c4n3)cc2)CC1` [compound 8C from WO 2015/165428, reference compound] had an IC50 at FLT3 of 1030 nM. The same measure, in the same setting: the figure for `c1ccc(-c2coc3ccc(Nc4ccncc4)nc23)cc1` [compound 8D from WO 2015/165428, reference compound] is 1240 nM; for `c1ccc(Nc2ccc3occ(-c4ccccc4)c3n2)cc1` [compound 8E from WO 2015/165428, reference compound] it is 2720 nM.

For orientation: IC50 means the concentration at which inhibition is half-maximal. A low value points to higher potency.
